Results as given in patent US20250129083A1, “IMIDAZOTETRAZINE COMPOUNDS AND TREATMENT OF TMZ-RESISTANT CANCERS” (THE BOARD OF TRUSTEES OF THE UNIVERSITY OF ILLINOIS, priority 2022, published 2025).
Read-outs that look alike come from different tables or passages of the source.

Experiments:
U118MG cells = assay: Cell viability assay (Alamar Blue, 7 days), U118MG; format: cell-based; conditions: Homo sapiens, U-118-MG, 168 h, MGMT (+) MMR (+), 600 c/w, SEM, n=3
Method: (§1) Cell Culture and Reagents. All cell lines were grown in a 37° C., 5% CO2, humidified environment, in media containing 1% penicillin/streptomycin. Stable cell line generation of GL261 MGMT+ was purchased from Creative Biogene. Cell culture conditions are as follows: cell lines U87, T98G, and RKO were grown in EMEM with 10% FBS. D54, GL261, GL261 MGMT+, and U118MG cell lines were grown in DMEM with 10% FBS. HCT116 cells were grown in RMPI with 10% FBS. D341 Med cells were grown in EMEM with 20% FBS. Temozolomide (TMZ) was purchased from AK Scientific. TMZ analogues were synthesized as described below. Compounds were dissolved in DMSO (1% final concentration, Fisher Chemical) for cell culture studies.
(§2) Cell Viability Assays. Cells were harvested, seeded in a 96-well plate and allowed to adhere. After three hours, compound was added to each well in DMSO (1% final concentration). Cells were incubated for seven days (unless otherwise noted) before viability was assessed by the Alamar Blue assay. Raptinal (20 μM) was used as a dead control.
Plated 1500 c/w for GL261; 600 c/w for U87; 600 c/w for U118MG; 1500 c/w for GL261 MGMT+ Incubated ovn and added 1 μL of compound in DMSO the next day. Incubated over 7 days; added Alamar Blue to assess cell viability and used 10 μM Raptinal as dead control. Error is SEM, n=3.

HCT116 cells = assay: Cell viability assay (Alamar Blue, 7 days), HCT116; format: cell-based; conditions: Homo sapiens, HCT-116, 168 h
Method: as §1, §2

[1] = test system: RKO colon cancer cell line; assay: Cell viability assay (Alamar Blue, 7 days), RKO; format: cell-based; conditions: 168 h
Method: as §1, §2

T98G cells = assay: Cytotoxicity after pretreatment with MGMT inhibitor O6BG; format: cell-based, human; conditions: T98G pretreated (3 hours) with O6BG vs non-pretreated
Method: FIG. 3A-E. Investigation of the mechanism of action and efficacy of CPZ in MGMT+ cell lines. (A) Detection of O^6-methyl-2′-deoxyguanosine or O^6-propargyl-2′-deoxyguanosine in GL261 cells after treatment with TMZ or CPZ, respectively. GL261 cells were treated with the indicated concentration of compound for 8 hours before they were harvested and genomic DNA was extracted. DNA (10 μg) was hydrolyzed and submitted to LC-MS/MS for quantitation. Both O^6-Me-dG and O^6-proparyl-dG were below the limit of detection in the DMSO control. Error is SEM, n≥3. Cytotoxicity of TMZ (B) or CPZ (C) in T98G cells pretreated (3 hours) with MGMT inhibitor O6BG. Error is SEM, n≥3. (D) 7 day dose-response curves of TMZ and CPZ in GL261 cells. Error is SEM, n≥3. (E) 7 day dose-response curves of TMZ and CPZ in GL261 MGMT+ cells. Error is SEM, n≥3.
To further explore the ability of CPZ to evade MGMT-mediated resistance, MGMT-expressing T98G cells were pretreated with MGMT inhibitor O6BG followed by treatment with TMZ or CPZ. […] This cell death potentiation by TMZ upon treatment with an MGMT inhibitor was also observed in MGMT-expressing cell lines U118MG and RKO, whereas the efficacy of CPZ was again unaffected. […]

[2] = test system: genomic DNA of GL261 cells; assay: Quantitation of O6-guanine DNA adducts in cells, GL261; format: cell-based, mouse; conditions: 100, 300, or 500 μM, 8 hours; LC-MS/MS
Method: (§3) Importantly, because CPZ was designed to release a different active species than TMZ, the alkylation pattern in a cellular context is likely different. Therefore, to assess if alkylation still occurs with CPZ, a DNA alkylation assay was performed. GL261 cells were treated with 100, 300, or 500 μM TMZ or CPZ for 8 hours after which the cells were harvested and genomic DNA was extracted and subsequently hydrolyzed to constituent deoxyribonucleosides. LC-MS/MS analysis was employed to quantify the amount of O^6-methyl-2′-deoxyguanosine (O^6-Me-dG) or O^6-propargylated-2′-O^6-deoxyguanosine (O^6-Prop-dG) in each sample.
(§4) Quantitation of O^6-guanine DNA Adducts in Cells. GL261, A172, or D54 cells were plated at 1×10^6 c/w in a 6-well plate before they were treated with compound at the indicated concentration (1% final concentration DMSO). After incubation for the indicated time, the cells were harvested and pelleted. Genomic DNA was extracted using the DNeasy Blood & Tissue Kit (Qiagen, ID: 69504). DNA was then precipitated using the following procedure: 1/10 v/v […] sodium acetate (pH 5.2) and 2.5× v/v ethanol was added to each sample which was then kept at −80° C. for 1 h. […] Hydrolyzed samples were then submitted for LC-MS/MS quantitation along with a synthetic standard. Samples were analyzed with a 5500 QTRAP LC/MS/MS system (AB Sciex) with a 1200 series HPLC system (Agilent).

genomic DNA of D54 cells = assay: Quantitation of O6-guanine DNA adducts in cells, D54; format: cell-based; conditions: MGMT-negative; LC-MS/MS
Method: as §3, §4

[3] = test system: E. coli WP2 uvrA pKM101 strain; assay: Ames test, E. coli WP2 uvrA pKM101; format: cell-based; conditions: 30 μM
Method: Next, we measured the mutagenicity of CPZ versus TMZ. TMZ and other DNA methylating chemotherapies are known mutagens, inducing G:C→A:T mutations due to erroneous recognition of O^6-methylguanine. […] CPZ and TMZ (at 30 μM) were also assessed in the E. coli WP2 uvrA pKM101 strain, which is considered one of the more sensitive Ames tester strains available.

[4] = Maximum tolerated dose / tolerability in mice; format: in vivo; conditions: in vivo, 66 mg/kg, once per day over 5 days
[5] = Solubility in IV formulations; format: physicochemical; conditions: for Solubility in 20/80 DMSO/PBS / Solubility in 15/7/5/73 DMSO/NMP/T20/20% SPE-βCD / Solubility in 15/10/75 DMSO/NMP/20% SPE-βCD: IV formulation; for Solubility in 20/80 DMSO/PBS: 5 mg/mL solution for 100 μL injection; for Solubility in 15/7/5/73 DMSO/NMP/T20/20% SPE-βCD / Solubility in 15/10/75 DMSO/NMP/20% SPE-βCD: 6.6 mg/mL solution for 200 μL injection
[6] = MGMT (−) MMR (−), 7 days, read-out: Activity, HCT116
[7] = MGMT (−)/MMR (−), 7 day, read-out: IC50, HCT116
[8] = 7 days, read-out: Activity, RKO
[9] = MGMT (+)/MMR (−), 7 day, read-out: IC50, RKO
[10] = female, C57BL/6, mouse, ip, intraperitoneal, read-out: MTD, I.P.

Cn1nnc2c(C(N)=O)ncn2c1=O [TMZ, temozolomide, reference compound]
IC50 (U118MG cells): 322 ± 7 µM | IC50 (HCT116 cells; [6]): 840 ± 30 µM | IC50 (HCT116 cells; [7]): > 800 µM | IC50 [1, 8]: > 1000 µM | IC50 [1, 9]: > 1000 µM | Potentiation of cell death by O6BG pretreatment (T98G cells): dramatic potentiation of cell death | O6-alkyl-2′-deoxyguanosine adducts (O6-Me-dG for TMZ, O6-Prop-dG for CPZ), GL261 [2]: clear dose-dependent increase | O6-dG alkylation adducts, D54 (genomic DNA of D54 cells): dose-dependent increase in methyl adducts | Ames test revertant colonies, E. coli WP2 uvrA pKM101 [3]: 95/96 | Mutagenicity, E. coli WP2 uvrA pKM101 [3]: mutagenic | MTD at 5 days [4, 10]: 66 mg/kg | MTD at 5 days ([4]; mouse, intravenous, read-out: MTD, I.V.): 66 mg/kg | Solubility in 20/80 DMSO/PBS [5]: Soluble* | Solubility in 15/7/5/73 DMSO/NMP/T20/20% SPE-βCD [5]: Soluble | Solubility in 15/10/75 DMSO/NMP/20% SPE-βCD [5]: Soluble

C#CCn1nnc2c(Cl)ncn2c1=O [CPZ, 8-chloro-3-(prop-2-yn-1-yl)imidazo[5,1-d][1,2,3,5]tetrazin-4(3H)-one]
IC50 (U118MG cells): 17 ± 1 µM | IC50 (HCT116 cells; [6]): 14 ± 16 µM | IC50 (HCT116 cells; [7]): 14 µM | IC50 [1, 8]: 10 ± 1 µM | IC50 [1, 9]: 10 µM | Potentiation of cell death by O6BG pretreatment (T98G cells): No such enhancement in activity | O6-alkyl-2′-deoxyguanosine adducts (O6-Me-dG for TMZ, O6-Prop-dG for CPZ), GL261 [2]: no detection of O^6-Prop-dG adducts | O6-dG alkylation adducts, D54 (genomic DNA of D54 cells): did not harbor measurable levels of the propargyl adduct | Ames test revertant colonies, E. coli WP2 uvrA pKM101 [3]: no revertant colonies | Mutagenicity, E. coli WP2 uvrA pKM101 [3]: non-mutagenic | MTD at 5 days [4, 10]: 66 mg/kg | Solubility for IV administration [5]: insufficient solubility for IV administration | Solubility in 20/80 DMSO/PBS [5]: Insoluble | Solubility in 15/7/5/73 DMSO/NMP/T20/20% SPE-βCD [5]: Insoluble | Solubility in 15/10/75 DMSO/NMP/20% SPE-βCD [5]: Insoluble
